This note sets out measurements from patent US9926297B2, “Bicyclic AZA compounds as muscarinic M1 receptor and/or M4 receptor agonists” (Heptares Therapeutics Limited, priority 2014, dated 2018).

Experiment [1] relates to scopolamine-induced amnesia. The experiment in a line: Passive avoidance task, scopolamine-induced amnesia. Format: in vivo. Here is the method: Studies were carried out as described previously by Foley et al., (2004) Neuropsychopharmacology. In the passive avoidance task scopolamine administration (1 mg/kg, i.p.) at 6 hours following training rendered animals amnesic of the paradigm. A dose range of 3, 10, and 30 mg/kg (po) free base, administered 90 minutes prior to the training period via oral gavage, was examined.

Experiment [2] concerns the target T1, human muscarinic M2 receptor (Homo sapiens, UniProt P08172).
T1 sequence (P08172 1-466): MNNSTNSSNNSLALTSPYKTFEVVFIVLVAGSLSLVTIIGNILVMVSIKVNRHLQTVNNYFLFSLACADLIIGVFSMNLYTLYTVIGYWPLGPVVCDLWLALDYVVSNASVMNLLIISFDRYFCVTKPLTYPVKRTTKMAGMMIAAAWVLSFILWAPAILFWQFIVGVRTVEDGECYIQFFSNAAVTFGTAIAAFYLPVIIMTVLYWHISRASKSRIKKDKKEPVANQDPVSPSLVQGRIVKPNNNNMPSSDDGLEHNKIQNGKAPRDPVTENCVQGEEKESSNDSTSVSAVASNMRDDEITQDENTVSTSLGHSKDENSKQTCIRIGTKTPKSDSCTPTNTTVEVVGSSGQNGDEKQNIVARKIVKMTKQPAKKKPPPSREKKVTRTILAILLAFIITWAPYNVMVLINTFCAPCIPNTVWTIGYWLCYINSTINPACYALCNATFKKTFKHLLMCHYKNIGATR
As to the kind of experiment: Alphascreen Surefire phospho-ERK1/2 functional assay, M2. The conditions noted are these: for Emax: CHO.

Experiment [3] addresses human muscarinic M3 receptor (Homo sapiens, UniProt P20309). The experiment in a line: Alphascreen Surefire phospho-ERK1/2 functional assay, M3. The conditions noted are these: for Emax: CHO; for EC50: pEC50 M3, CHO cells stably expressing human M3, phospho-ERK1/2, * = variable results. (Bead proximity is the source of the signal in Alpha formats.)
The target in experiment [4] is T2, human muscarinic M1 receptor (Homo sapiens, UniProt P11229).
T2 sequence (P11229 1-460): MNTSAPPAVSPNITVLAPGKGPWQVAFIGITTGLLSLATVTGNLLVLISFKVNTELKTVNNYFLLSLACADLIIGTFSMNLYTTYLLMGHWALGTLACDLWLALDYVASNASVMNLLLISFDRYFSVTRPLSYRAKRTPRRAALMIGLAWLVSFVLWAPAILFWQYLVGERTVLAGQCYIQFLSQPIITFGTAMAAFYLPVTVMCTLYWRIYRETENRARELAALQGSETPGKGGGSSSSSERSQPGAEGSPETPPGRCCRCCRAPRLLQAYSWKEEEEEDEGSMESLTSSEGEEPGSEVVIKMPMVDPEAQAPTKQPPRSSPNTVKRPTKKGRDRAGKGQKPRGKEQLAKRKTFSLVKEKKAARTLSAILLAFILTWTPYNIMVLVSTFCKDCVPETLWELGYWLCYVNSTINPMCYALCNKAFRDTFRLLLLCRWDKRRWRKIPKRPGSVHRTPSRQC
The experiment in a line: Alphascreen Surefire phospho-ERK1/2 functional assay, M1. Particulars: for EC50: CHO cells stably expressing human M1, phospho-ERK1/2, * = variable results, read-out: pEC50 M1 (converted); for Emax: CHO. Format: cell-based.

Experiment [5] deals with T3, human muscarinic M4 receptor (Homo sapiens, UniProt P08173).
T3 construct: expressed in transfected cells
T3 sequence (P08173 1-479): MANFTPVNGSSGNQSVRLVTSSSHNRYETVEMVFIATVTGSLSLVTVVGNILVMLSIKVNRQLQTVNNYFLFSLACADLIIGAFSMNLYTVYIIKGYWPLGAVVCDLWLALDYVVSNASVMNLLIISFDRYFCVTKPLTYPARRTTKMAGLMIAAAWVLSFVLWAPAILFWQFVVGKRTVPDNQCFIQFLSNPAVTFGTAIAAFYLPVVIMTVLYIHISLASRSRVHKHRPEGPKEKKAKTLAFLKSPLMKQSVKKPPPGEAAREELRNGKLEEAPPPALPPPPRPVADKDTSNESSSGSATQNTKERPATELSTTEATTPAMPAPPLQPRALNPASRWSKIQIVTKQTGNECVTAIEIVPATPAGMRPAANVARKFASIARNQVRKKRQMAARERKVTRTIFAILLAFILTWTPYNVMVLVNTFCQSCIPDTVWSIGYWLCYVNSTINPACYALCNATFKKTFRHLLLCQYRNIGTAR
As to the kind of experiment: Alphascreen Surefire phospho-ERK1/2 functional assay, M4. Particulars: for EC50: CHO cells stably expressing human M4, phospho-ERK1/2, * = variable results, read-out: pEC50 M4 (converted); for Emax: CHO. Format: cell-based.

The mark [6] stands for this setting: read-out: % Emax cf. ACh, M2, CHO cells stably expressing human M2, relative to ACh.
The mark [7] stands for this setting: read-out: % Emax cf. ACh, M3, CHO cells stably expressing human M3, relative to ACh.
The mark [8] stands for this setting: read-out: % Emax cf. ACh, M1, CHO cells stably expressing human M1, relative to ACh.
Where [9] appears, read: read-out: % Emax cf. ACh, M4, CHO cells stably expressing human M4, relative to ACh.

Where two headings read alike, the source gives them in different places.

Sequence of human muscarinic M3 receptor (P20309 whole entry): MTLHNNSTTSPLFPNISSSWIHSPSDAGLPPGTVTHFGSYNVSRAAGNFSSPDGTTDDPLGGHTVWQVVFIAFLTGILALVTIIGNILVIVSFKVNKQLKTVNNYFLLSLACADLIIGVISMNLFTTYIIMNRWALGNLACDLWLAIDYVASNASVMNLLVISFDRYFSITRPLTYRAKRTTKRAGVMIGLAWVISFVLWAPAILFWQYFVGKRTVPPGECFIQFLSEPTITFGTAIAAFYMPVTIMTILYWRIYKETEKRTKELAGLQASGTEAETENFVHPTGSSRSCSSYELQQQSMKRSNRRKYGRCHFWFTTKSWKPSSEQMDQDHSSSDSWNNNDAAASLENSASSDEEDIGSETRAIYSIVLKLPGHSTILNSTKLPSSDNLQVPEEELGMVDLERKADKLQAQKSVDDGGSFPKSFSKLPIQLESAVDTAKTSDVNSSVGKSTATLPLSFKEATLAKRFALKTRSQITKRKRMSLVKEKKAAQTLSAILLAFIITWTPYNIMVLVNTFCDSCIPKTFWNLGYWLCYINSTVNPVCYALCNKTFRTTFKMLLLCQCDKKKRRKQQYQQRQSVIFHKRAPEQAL

As a reminder, the ED50 is the midpoint of the dose-response relation. Usually Emax stands for the greatest response seen or fitted, relative to the assay's reference. In the case of `CCOC(=O)N1CCC2(CC(N3CCC(n4cccn4)CC3)C2)C1` (single isomer, unassigned) [1-33 Isomer 2, ethyl 2-[4-(1H-pyrazol-1-yl)piperidin-1-yl]-6-azaspira[3.4]octane-6-carboxylate], in experiment [1] (3, 10 and 30 mg/kg po), the “reversal of scopolamine-induced amnesia” value is reported as “reverse scopolamine-induced amnesia of the paradigm in a dose-dependent manner”. In addition, the ED50 in experiment [1] (po, 90 minutes prior to training, scopolamine 1 mg/kg i.p. 6 hours following training, read-out: approximate ED50, reversal of scopolamine-induced amnesia) was about 10 mg/kg. Moreover, the Emax in experiment [2] (read-out: % Emax cf. ACh, M2) was 49%; in experiment [3] (read-out: % Emax cf. ACh, M3), 7%; in experiment [4] (read-out: % Emax cf. ACh, M1), 11%; in experiment [5] (read-out: % Emax cf. ACh, M4), 118%. The EC50 is over 20 µM in experiment [3], 25.1 nM in experiment [4] and 3.98 nM in experiment [5].

Turning to `CCOC(=O)N1CCC2(CC(N3CCC(C4CCCN4C(=O)OC)CC3)C2)C1` (single isomer, unassigned) [2-11 Isomer 2, ethyl 2-{4-[1-(methoxycarbonyl)pyrrolidin-2-yl]piperidin-1-yl}-6-azaspiro[3.4]octane-6-carboxylate], the values for the EC50 in experiment [2], in experiment [3] and in experiment [5] were over 20 µM, over 20 µM and 25.1 nM, respectively. The Emax is 7% in experiment [2] (setting [6]), 7% in experiment [3] (setting [7]), 39% in experiment [4] (setting [8]) and 100% in experiment [5] (setting [9]).

Turning to `CCOC(=O)N1CCC2(CC(N3CCC([C@@H]4CCCN4C(=O)OCCNC)CC3)C2)C1` (single isomer, unassigned) [2-67 Isomer 2], the EC50 is over 20 µM in experiment [2], over 20 µM in experiment [3], over 20000 nM in experiment [4] and 20 nM in experiment [5]. In addition, the Emax in experiment [2] (setting [6]) is 67%; in experiment [3] (setting [7]), 1%; in experiment [4] (setting [8]), 19%; in experiment [5] (setting [9]), 79%.

With `CCOC(=O)N1CCC2(CC(N3CCC(c4ccnc(N)n4)CC3)C2)C1` (single isomer, unassigned) [3-8 Isomer 2, ethyl 2-[4-(2-aminopyrimidin-4-yl)piperidin-1-yl]-6-azaspiro[3.4]octane-6-carboxylate], the EC50 is over 20 µM in experiment [2], over 20 µM in experiment [3], over 20000 nM in experiment [4] and 25.1 nM in experiment [5]. For the same compound, the maximal effect (Emax) in experiment [2] (setting [6]) turned out to be 2%; in experiment [3] (setting [7]) it was 0%; in experiment [4] (setting [8]), 19%; in experiment [5] (setting [9]), 54%.

Regarding `CCOC(=O)N1CCC2(CC(N3CCC([C@@H]4CCCN4C(=S)CC)CC3)C2)C1` (single isomer, unassigned) [2-58 Isomer 2], the EC50 in experiment [2] was over 20 µM; in experiment [3] it was over 20 µM; in experiment [4], 1000 nM; in experiment [5], 31.6 nM. The Emax in experiment [2] (setting [6]) came to 45%; in experiment [3] (setting [7]), 9%; in experiment [4] (setting [8]), 66%; in experiment [5] (setting [9]), 156%.

Turning to `CCOC(=O)N1CCC2(CC(N3CCC(N4CC(F)(F)C[C@@H]4C(=O)NOC)CC3)C2)C1` (single isomer, unassigned) [2-91 Isomer 2], the EC50 in experiment [2] was over 20 µM; in experiment [3], over 20 µM; in experiment [4], 501 nM; in experiment [5] it was 79.4 nM. The Emax in experiment [2] (setting [6]) stood at 12%; in experiment [3] (setting [7]) it was 10%; in experiment [4] (setting [8]) it was 40%; in experiment [5] (setting [9]) it was 67%.

Take `CCOC(=O)N1CCC2(CC(N3CCC([C@@H]4CCCN4c4ccccn4)CC3)C2)C1` (single isomer, unassigned) [2-79 Isomer 2]: the EC50 in experiment [2] is over 20 µM; in experiment [3], over 20 µM; in experiment [4], 501 nM; in experiment [5], 31.6 nM. The Emax in experiment [2] (setting [6]) worked out at 2%; in experiment [3] (setting [7]), 19%; in experiment [4] (setting [8]) it was 37%; in experiment [5] (setting [9]), 70%.

`CCOC(=O)N1CCC2(CC(N3CCC(N4CC(F)(F)C[C@@H]4C)CC3)C2)C1` (single isomer, unassigned) [2-106 Isomer 2]: the EC50 in experiment [2] was over 20 µM; in experiment [3], over 20 µM; in experiment [4] it was 126 nM; in experiment [5], 20 nM. Further, the maximal effect (Emax) in experiment [2] (setting [6]) was found to be 10%; in experiment [3] (setting [7]), 5%; in experiment [4] (setting [8]), 97%; in experiment [5] (setting [9]) it was 102%.

As to `CCOC(=O)N1CCC2(CC(N3CCC([C@@H]4CCCN4C(=O)NC(C)C)CC3)C2)C1` (single isomer, unassigned) [2-25 Isomer 2], the EC50 is over 20 µM in experiment [2], over 20 µM in experiment [3], 631 nM in experiment [4] and 10 nM in experiment [5]. Also, the Emax is 6% in experiment [2] (setting [6]), 2% in experiment [3] (setting [7]), 74% in experiment [4] (setting [8]) and 86% in experiment [5] (setting [9]).
